Source: patent US20100035888A1, “Diaryl Urea for Treating Pulmonary Hypertension” (Bater Healthcare AG, priority 2005, published 2010)

Tested on: monocrotaline-treated rats with pulmonary hypertension
Test: Pulmonary artery pressure in monocrotaline treated rats (MCT-induced pulmonary arterial hypertension)
Format: in vivo, rat
Conditions: 3 mg/kg by gavage once daily from day 14 to day 28 after MCT
Experimental: The effects of the compounds and drug combinations according to the invention are tested in vitro on isolated rat pulmonary arteries and in vivo in monocrotaline-treated rats with pulmonary hypertension.
Male Sprague Dawley rats (250-300 g) are treated with monocrotaline 60 mg/kg subcutanously (=day 0). On day 14 after monocrotaline injection treatment the compound/combination to be tested is administered. On day 28 hemodynamic parameters, i.e. right ventricular pressure, systemic blood pressure, heart rate, arterial and venous oxygen saturation are measured and compared with untreated control animals.
Monocrotaline (MCT) treated rats are randomized to receive 4{4-[3-(4-chloro-3-trifluoromethylphenyl)-ureido]-3-fluorophenoxy}-pyridine-2-carboxylic acid methylamide 3 mg/kg or vehicle by gavage once daily after the onset of moderate pulmonary arterial hypertension starting 14 days after the injection of MCT until day 28. […]

## CNC(=O)c1cc(Oc2ccc(NC(=O)Nc3ccc(Cl)c(C(F)(F)F)c3)c(F)c2)ccn1 [BAY73-4506, 4{4-[3-(4-chloro-3-trifluoromethylphenyl)-ureido]-3-fluorophenoxy}-pyridine-2-carboxylic acid methylamide]
Control 0%, placebo 40%
  mortality rate: 0%
mean±SEM, control 0.25±0.01, placebo 0.62±0.02
  right ventricle/left ventricle+septum ratio (right ventricular hypertrophy): 0.28±0.01
